From patent publication US4748161A, “Triterpenyl esters of organic acids and hypolipidemic agents composed of them” (Amano Pharmaceutical Co., Ltd., priority 1984, dated 1988)
Where two headings read alike, the source gives them in different places.

Columns and labels:
[1] = Body weight of rats in method B; set-up: species or system male Wistar strain rats; conditions: rat, in vivo
Procedure: (§1) Male Wistar strain rats (100±1 g, each 8 rats were formed into a group except that the control group fed with a hyperlipidemic diet was formed of 16 rats) were used as test animals. A powdery diet (CE-2, supplied by Clea Japan, Inc.) was used as ordinary diet. The hyperlipidemic diet was prepared by fortifying the ordinary diet with cholesterol (1%) and cholic acid (0.5%). Each test compound (1%) for administration was admixed with the hyperlipidemic diet. Each two rats were kept in a cage and given the prescribed diet and water ad libitum. Thus the rats were fed for 4 weeks at a constant temperature of 23±1° C. and a constant R.H. of 55±5%. Finally, the rats were fasted from food except water for 16 hours (from 4 p.m. of the 28th test day to 8 a.m. of the 29th test day), and under anesthesia with pentbarbital sodium (tradename: Nembutal), blood was taken from each rat through the descending abdominal arota. Then, TC, HDL-C, TG, PL, and LPO in the serum were measured in the following manner.

[2] = tested on: serum lipids and serum lipid hydroperoxide; experiment: Pharmacological test method B for anti-hyperlipidemic activity (serum lipids, 4 weeks feeding); format: in vivo, male Wistar strain rats; set-up: AI Diff.: unit not given here; conditions: for change in vivo at 1 % in diet: Rattus norvegicus, po, 672 h; for change in vivo at 1 % in diet / AI Diff. / HDL-C Diff. / LPO Diff. / PL Diff. / TG Diff.: versus control group; for TG % of diff. (Table 20) / TG Diff. (Table 20): Table 20, versus control group; for HDL-C rise compared with normal diet group: versus normal diet group
Procedure: Pharmacological test method B for anti-hyperlipidemic acitivity (the term "method B" was used in the present specification)
as §1
A TC kit-K (supplied by Nippon Shoji Kaisha, Ltd.) was used. The principle of this determination is as follows: The ester of cholesterol in the serum is hydrolyzed with cholesterol-ester hydrolase into free cholesterol and fatty acids. All the free cholesterol is oxidized with cholesterol oxydase to form Δ^4 -cholestenone and hydrogen peroxide. Phenol and 4-aminoantipyrin are oxidatively condensed together by the formed hydrogen peroxide and peroxydase. The produced red quinone coloring matter is measured by colorimetry for absorbance at 500 nm using a spectrophotometer, thereby determining the TC:
The color-developing liquid (3.0 ml) is well mixed with the sample serum (0.02 ml). The mixture once heated at 37° C. for 15 minutes, is measured for absorbance at 500 nm with a spectrophotometer. The found absorbance is denoted by EA. On the other hand, the color-developing liquid (3.0 ml) is well mixed with the standard solution. The mixture is treated and measured for absorbance at 500 nm in the same manner as the above. This found absorbance is denoted by ES. Both EA and ES are determined with reference to the value of the blank test conducted using the color-developing liquid (3.0 ml) alone. [formula]
An HDL-C kit-N (supplied by Nippon Shoji Kaisha, Ltd.) was used. […] (VLDL) and lo density lipoprotein (LDL) in the serum is precipitated by the action of heparin. The precipitate is separated by centrifugation. High density lipoprotein (HDL) is dissolved in the separated supernatant. Esters of cholesterol in this fraction is hydrolyzed with cholesterol-ester hydrolase into free cholesterol and fatty acids. All the free cholesterol is oxidized with cholesterol oxydase to form Δ^4 -cholestenone and hydrogen peroxide. Phenol and 4-aminoantipyrine are oxidatively condensed together by the formed hydrogen peroxide and peroxydase. The produced red quinone coloring matter is measured by colorimetry for absorbance at 500 nm using a spectrophotometer, thereby determining the HDL-C.
A PL kit-K (supplied by Nippon Shoji Kaisha, Ltd.) was used for the determination. Lecithin, sphingomyelin, and lysolecithin are decomposed by phospholipase D into choline and phosphatidic acid, N-acylsphingosyl phosphate, or lysophosphatidic acid, respectively. The resulting choline is quantitatively decomposed by choline oxydase into hydrogen peroxide and betaine. With this hydrogen peroxide, and aid of peroxydase, phenol and 4-aminoantipyrin are condensed into red quinone pigment, then the absorbance at 500 nm of which is measured with a spectrophotometer, thereby determining the PL. […]

[3] = 1% in hyperlipidemic diet, 4 weeks

Compound | change in vivo at 1 % in diet ([2]; read-out: AI % of diff.) [%] | change in vivo at 1 % in diet ([2]; read-out: HDL-C % of diff.) [%] | change in vivo at 1 % in diet ([2]; read-out: LPO % of diff.) [%] | change in vivo at 1 % in diet ([2]; read-out: PL % of diff.) [%] | change in vivo at 1 % in diet ([2]; read-out: TG % of diff.) [%] | TG % of diff. (Table 20) [2] [%] | TG Diff. (Table 20) [2] [mg/dL] | AI Diff. [2] | HDL-C Diff. [2] | LPO Diff. [2] [nmol/mL] | PL Diff. [2] [mg/dL] | TG Diff. [2] [mg/dL] | HDL-C rise compared with normal diet group [2] | other results
CC(C)=CCCC(C)C1CCC2(C)C3CCC4C(C)(C)C(OC(=O)C(C)=Cc5ccc(N)cc5)CCC45CC35CCC12C (stereo not drawn) [Example 205, Cycloartenyl ester of p-amino-α-methylcinnamic acid] |  |  |  |  |  |  |  |  |  |  |  |  |  | Body weight during feed period, 1st day [1]: 105 ± 3.7 g; Body weight during feed period, 8th day [1]: 142 ± 9.8 g; Body weight during feed period, 15th day [1]: 188 ± 13.2 g; Body weight during feed period, 22nd day [1]: 238 ± 19.8 g; Body weight during feed period, 28th day [1]: 267 ± 20.4 g; Body weight just before blood sampling, 29th day [1]: 256 ± 19.2 g; AI [(TC - HDL-C)/(HDL-C)] [2, 3]: 4.144; HDL-C in serum [2, 3]: 37.4 mg/dL; LPO in serum [2, 3]: 2.02 nmol/mL; PL in serum [2, 3]: 113.1 mg/dL; TC in serum [2, 3]: 192.4 mg/dL; TG in serum [2, 3]: 60.3 mg/dL
C=C(CCC(C)C1CCC2(C)C3CCC4C(C)(C)C(OC(=O)C(C)=Cc5ccc(OC(=O)CC)c(OC)c5)CCC45CC35CCC12C)C(C)C (stereo not drawn) [Example 117, 24-methylenecycloartanyl ester of 3-methoxy-4-propionyloxy-α-methylcinnamic acid] | -64.3 | 63.1 | -24.5 | -28.3 | -21.6 | -37.7 | -157.9 | -16.17 | +10.1 mg/dl | -0.85 | -50.0 | -17.6 |  | 
COc1ccc([N+](=O)[O-])cc1C(=O)OC1CCC23CC24CCC2(C)C(C(C)CCC=C(C)C)CCC2(C)C4CCC3C1(C)C (stereo not shown) [Example 170, cycloartenyl ester of 2-methoxy-5-nitrobenzoic acid] | -74.9 | 123 | -14.1 | -28.9 | -21.9 | -37.5 | -157.0 | -18.83 | +19.7 mg/dl | -0.49 | -51.1 | -17.8 | remarkable rises | 
CCCOc1ccc(N)cc1C=C(C)C(=O)OC1CCC23CC24CCC2(C)C(C(C)CCC=C(C)C)CCC2(C)C4CCC3C1(C)C (stereo not drawn) [Example 195, Cycloartenyl ester of 5-amino-2-propoxy-α-methylcinnamic acid] | -88.3 | 211 | -37.2 | -34.2 | -28.9 | -53.3 | -223.1 | -22.22 | +33.7 mg/dl | -1.29 | -60.4 | -23.5 | remarkable rises | 
CCC(=O)Oc1ccc(C=C(C)C(=O)OC2CCC34CC35CCC3(C)C(C(C)CCC=C(C)C)CCC3(C)C5CCC4C2(C)C)cc1OC (stereo not drawn) [Example 113, cycloartenyl ester of 3-methoxy-4-propionyloxy-α-methyl cinnamic acid] | -63.5 | 55.6 | -12.1 | -29.7 | -25.7 | -39.4 | -164.7 | -15.96 | +8.9 mg/dl | -0.42 | -52.5 | -20.9 |  | 
COc1ccc(N)cc1C(=O)OC1CCC23CC24CCC2(C)C(C(C)CCC=C(C)C)CCC2(C)C4CCC3C1(C)C (stereo not shown) [Example 171, cycloartenyl ester of 5-amino-2-methoxybenzoic acid] | -71.6 | 51.3 | -36 | -33 | -19.3 | -53.0 | -221.6 | -18.02 | +8.2 mg/dl | -1.25 | -58.4 | -15.7 |  | 
C=C(CCC(C)C1CCC2(C)C3CCC4C(C)(C)C(OC(=O)C(C)=Cc5cccc(N)c5)CCC45CC35CCC12C)C(C)C (stereo not drawn) [Example 213, 24-Methylenecycloartanyl ester of m-amino-α-methylcinnamic acid] | -93 | 328 | -38.9 | -34.8 | -29.2 | -54.7 | -229.0 | -23.38 | +52.4 mg/dl | -1.35 | -61.5 | -23.7 | remarkable rises | 
COc1cc(C=CC(=O)OC2CCC34CC35CCC3(C)C(C(C)CCC(C)=C(C)C)CCC3(C)C5CCC4C2(C)C)ccc1N (stereo not shown) [Example 178, Cyclobranyl ester of 4-amino-3-methoxycinnamic acid] | -88.9 | 215 | -36.6 | -28.2 | -28 | -54.2 | -226.9 | -22.35 | +34.4 mg/dl | -1.27 | -49.8 | -22.8 | remarkable rises | 
